According to patent publication US12037333B2, “Pyridopyrazine and pyridotriazine inhibitors of influenza virus replication” (priority 2018, dated 2024):

The molecules below were run on Influenza type B (cell culture adapted strain B/Lee/40, ATCC VR-1535) (assay: Influenza antiviral assay: inhibition of virus-induced cytopathic effects (CPE) in MDCK cells, XTT dye reduction). Details: Influenza B virus, MDCK, 96 h, strain B/Lee/40, MDCK cells, CPE inhibition at 4 days.
Format: cell-based

SMILES	EC50
CN1CN(C23c4ccc(F)cc4CC2Cc2cc(F)ccc23)n2ccc(=O)c(O)c2C1=O (centres unmarked) [Compound A3, 1-(2,7-Difluoro-9a,10-dihydro-9H-indeno[1,2-a]inden-4b-yl)-5-hydroxy-3-methyl-2,3-dihydro-1H-pyrido[2,1-f][1,2,4]triazine-4,6-dione]	> 0.5 µM
CN1CN(C23c4ccccc4CC2Cc2c3ccc(Cl)c2F)n2ccc(=O)c(O)c2C1=O (centres unmarked) [Compound A160]	< 0.125 µM
CN1CN(C23c4ccccc4CC2Cc2cccc(F)c23)n2ccc(=O)c(O)c2C1=O (centres unmarked) [Compound A145]	< 0.125 µM
CCN1CN(C23c4cccc(F)c4CC2Cc2c(Cl)cccc23)n2ccc(=O)c(O)c2C1=O (centres unmarked) [Compound A151]	0.125 to 0.25 µM
CC(C)N1CN(C23c4ccccc4CC2(C)Cc2c3ccc(F)c2F)n2ccc(=O)c(O)c2C1=O (centres unmarked) [Compound A167]	< 0.125 µM
O=C1c2c(O)c(=O)ccn2N(C23c4ccccc4CC2Cc2c3ccc(F)c2F)CN1CCCF (centres unmarked) [Compound A80]	< 0.125 µM
COCCN1C(=O)c2c(O)c(=O)ccn2N(C23c4ccccc4CC2Cc2c(F)cccc23)C1C (centres unmarked) [Compound A124]	0.375 to 0.5 µM
CCCN1C(=O)c2c(O)c(=O)ccn2N(C23c4ccccc4CC2Cc2c(Cl)cccc23)C1C (centres unmarked) [Compound A132]	0.25 to 0.375 µM
